Data on two molecules can be found in patent US12390437B2, “Itaconic acid derivatives and uses thereof intreating an inflammatory disease or a disease associated with an undesirable immune response” (Sitryx Therapeutics Limited, priority 2019, dated 2025).

Series [1] deals with hepatocytes. The experiment in a line: Hepatocyte stability assay (human). The format is in vitro ADME. The following applies: 10 μM compound, 0.5×10^6 cells/mL, 60 minutes. From the text: (§1) Defrosted cryo-preserved hepatocytes (viability >70%) are used to determine the metabolic stability of a compound via calculation of intrinsic clearance (Clint; a measure of the removal of a compound from the liver in the absence of blood flow and cell binding). Clearance data are particularly important for in vitro work as they can be used in combination with in vivo data to predict the half-life and oral bioavailability of a drug.
(§2) The metabolic stability in hepatocytes assay involves a time-dependent reaction using both positive and negative controls. The cells must be pre-incubated at 37° C. then spiked with test compound (and positive control); samples taken at pre-determined time intervals are analysed to monitor the change in concentration of the initial drug compound over 60 minutes. A buffer incubation reaction (with no hepatocytes present) acts as a negative control and two cocktail solutions, containing compounds with known high and low clearance values (verapamil/7-hydroxycoumarin and propranolol/diltiazem), act as positive controls. • 1. The assay is run with a cell concentration of 0.5×10^6 cells/mL in Leibovitz buffer. • 2. All compounds and controls are run in duplicate. • 3. Compound concentration is 10 μM. • 4. All compounds and controls are incubated with both cells and buffer to show turnover is due to hepatic metabolism. • 5. All wells on the incubation plate will have 326.7 μL of either cells or buffer added. • 6. Prior to assay, cell and buffer-only incubation plates are preincubated for 10 mins at 37° C. • 7. The assay is initiated by adding compounds, 3.3 μL of 1 mM in 10% DMSO-90% Buffer; final DMSO concentration is 0.1%. • 8. Samples are taken at regular timepoints (0, 5, 10, 20, 40, 60 min) until 60 mins. • 9. Sample volume is 40 μL and it is added to 160 μL of crash solvent (acetonitrile with internal standard) and stored on ice. • 10. At the end of the assay, the crash plates are centrifuged at 3500 rpm for 20 mins at 4° C. • 11. 80 μL of clear supernatant is removed and mixed with 80 μL of deionised water before being analysed by LC-MS/MS.
(§3) Raw LC-MS/MS data are exported to, and analysed in, Microsoft Excel for determination of intrinsic clearance. The percentage remaining of a compound is monitored using the peak area of the initial concentration as 100%. Intrinsic clearance and half-life values are calculated using a graph of the natural log of percentage remaining versus the time of reaction in minutes. Half-life (min) and intrinsic clearance (Clint in μL min^−1 10^−6 cells) values are calculated using the gradient of the graph (the elimination rate constant, k) and Equations 1 and 2.

Series [2] concerns IL-1β cytokine output from isolated primary human monocytes. The experiment in a line: Primary human monocyte AlphaLISA IL-1β cytokine assay. The format is cell-based. The following applies: CD14+ primary human monocytes, LPS 24 hr then Nigericin 1 hour. The protocol: Measuring Inhibitory Effects on IL-1β and IL-6 Cytokine Output from Isolated Primary Human Monocytes
The cytokine inhibition profiles of compounds of formula (IW-1) were determined in a CD14^+ isolated primary human monocyte cell assay. All assays were performed in RPMI-1640 growth medium (Gibco), supplemented with heat-inactivated fetal bovine serum (FBS) and 1% penicillin-streptomycin unless specified otherwise. The IL-1β and IL-6 cytokine inhibition assays were each run in a background of isolated primary human monocyte cells as described below. All reagents described were from Sigma-Aldrich unless specified otherwise. Compounds were prepared as 100 mM DMSO stocks.
Primary peripheral blood mononuclear cells (PBMCs) were isolated from human whole blood. Following PBMC isolation, a CD14^+ monocyte isolation step was conducted whereby CD14^+ magnetic beads (Miltenyi Biotec) were incubated for 15 minutes with the PBMC suspension that was previously treated with ice cold T-cell isolation buffer (PBS, 0.5% BSA, 2 mM EDTA). Following bead incubation, the treated cell suspension was passed through a magnetic separation column designed to positively select for magnetically labelled cells. The isolated CD14^+ monocytes were subsequently plated at the appropriate cell density for the assay, prior to compound treatment on the day of plating. Working concentrations of compounds were prepared separately in RPMI-1640 only growth medium and pre-incubated with the cells for 30 minutes (37° C./5% CO2). Following the 30 minute compound pre-incubation, primary monocytes were treated with an appropriate concentration of LPS and subsequently incubated for a 24 hr period (37° C./5% CO2). An appropriate final concentration of Nigericin was then dispensed into the primary monocyte plates and incubated for 1 hour (37° C./5% CO2) before monocyte supernatants were harvested and collected in separate polypropylene 96-well holding plates prior to commencing the AlphaLISA cytokine assay.
Reagents from each of the IL-1β and IL-6 commercial kits (Perkin Elmer) were prepared and run according to the manufacturer's instructions. Subsequently, fluorescence signal was measured in a microplate reader (EnVision® Multilabel Reader, Perkin Elmer).
Percentage inhibition was calculated per cytokine by normalising the sample data to the high and low controls used within each plate (+/−LPS respectively). Percentage inhibition was then plotted against compound concentration and the 50% inhibitory concentration (IC50) was determined from the resultant concentration-response curve.

Series [3] relates to hepatocytes. Description: Hepatocyte stability assay (mouse). The format is in vitro ADME. The following applies: 10 μM compound, 0.5×10^6 cells/mL, 60 minutes.
From the text: as §1, §2, §3

Series [4] is described as follows: Hepatocyte stability assay (human). The format is in vitro ADME. The following applies: cryopreserved hepatocytes, 10 μM compound, 0.5×10^6 cells/mL, 60 minutes, read-out: T½.
From the text: as §1, §2, §3

The subject of series [5] is IL-1β cytokine output from THP-1s. The experiment in a line: THP-1 AlphaLISA IL-1β cytokine assay. Format: cell-based, human. The following applies: Homo sapiens, THP-1, PMA-differentiated THP-1 cells, LPS 24 hr then Nigericin 1 hour; read-out: IL-1β (IC50). An outline of the steps: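 AlphaLISA read-out of cytokine released into supernatants of differentiated THP-1 cells. Cells were PMA-treated for 72 h, exposed to compound for 30 min, stimulated with LPS for 24 h, then given nigericin for 1 h before harvest. IC50 values come from normalised concentration-response curves.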

Series [6] in a line: Hepatocyte stability assay (mouse). The format is in vitro ADME. The following applies: cryopreserved hepatocytes, 10 μM compound, 0.5×10^6 cells/mL, 60 minutes, read-out: T½.
From the text: as §1, §2, §3

Series [7] in a line: Mouse pharmacokinetic study, intravenous dosing. The format is in vivo. The following applies: male, C57BL/6, mouse, iv, plasma, 10 mg/kg i.v., read-out: Parent compound concentration following intravenous administration. The protocol: Pharmacokinetic studies were carried out in 6-8-week-old male C57BL/6 mice having free access to food and water. Intravenous dosing was conducted at 10 mg/kg (5 mL/kg; vehicle: 10% DMSO-90% (25% HP-13-CD in water)) via tail vein injection, with sampling at 3 min, 8 min, 15 min, 30 min, 1, 2, 4, 6 and 8 hours, i.e., 9 time points in total (N=3/time point), using semi-serial bleeding for plasma. Oral compound administration, via gavage, was carried out at 100 mg/kg (10 mL/kg; vehicle: 5% DMSO-95% (0.5% HPMC+0.1% Tween 80 in water)), with sampling at 5 min, 15 min, 30 min, 1, 2, 4, 6, 8 and 24 hours, i.e., 9 time points in total (N=3/time point), using semi-serial bleeding for plasma.
For both intravenous and oral routes, the mice were restrained manually at the designated time points, with ca. 110 μL of blood being taken into K2EDTA tubes via the facial vein. Blood samples were put on ice and centrifuged to obtain plasma samples from which the concentration at each time point was measured by LC-MS/MS.

Take `C=C(CC(=O)OCCCCCCCC)C(=O)O` [4-octyl itaconate, 4-Octyl itaconate, reference compound]: in series [1], the “CIint (μL min^−1 10^−6 cells)” value worked out at 401 μL min^−1 10^−6 cells and the “T½” value is 4 min. Also, the IC50 in series [2] was above 100 µM. Further, in series [3], the “CIint (μL min^−1 10^−6 cells)” value is 351 μL min^−1 10^−6 cells and the “T½” value stood at 4 min.
On to `C=C(CC(=O)O[C@H]1C[C@H]2CC[C@]1(C)C2(C)C)C(=O)OCC(=O)O` [Example 179, 2-((2-methylene-4-oxo-4-(((1R,2S,4R)-1,7,7-trimethylbicyclo[2.2.1]heptan-2-yl)oxy)butanoyl)oxy)acetic acid], for which the entries for the “CIint (μL min^−1 10^−6 cells)” value in series [1] and in series [3] were 13 μL min^−1 10^−6 cells and 129 μL min^−1 10^−6 cells, respectively. The half-life at 10 μM in series [4] came to 129 min; in series [6], 13 min. For the same molecule, the IC50 in series [5] turned out to be 11 µM. In series [7] (time 0.05 h), the concentration at 0.05 h turned out to be 17900 ng/mL. Also, in series [7] (time 0.133 h), the concentration at 0.133 h is 5320 ng/mL. The concentration at 0.25 h in series [7] (time 0.25 h) was determined as 1810 ng/mL. Also, the concentration at 0.5 h in series [7] (time 0.5 h) was 456 ng/mL. In addition, the concentration at 1 h in series [7] (time 1 h) came out at 13 ng/mL. Moreover, in series [7] (time 2 h), the concentration at 2 h was below 4 ng/mL. Moreover, in series [7] (time 4 h), the concentration at 4 h was below 4 ng/mL. Also, the concentration at 6 h in series [7] (time 6 h) is below 4 ng/mL. Further, in series [7] (time 8 h), the concentration at 8 h is below 4 ng/mL.
